Data as given in the supplement of paper PMC11061612.

Columns and labels:
Experiment in all cases: combination Emax (second highest fraction inhibited in the dose matrix, 72 h); higher = more inhibition; extreme values may be limits of the assay
MCF7 (Breast Carcinoma) = system: MCF7 (Breast Carcinoma)
Procedure, shortened: (§1)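 Bliss excess equals the observed combination effect minus the expected value EA + EB − EA·EB, where EA and EB are the effects of each agent alone. Combination Emax is the second-highest inhibition within the matrix. Inhibition was scaled from CellTiter-Glo 2.0 luminescence, with 0 set by vehicle wells and 1 by blank wells, after 72 hours of two-drug dosing of cells plated in 1536-well plates.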

[1] = system: TYK-nu (Ovarian Carcinoma)
Procedure, shortened: as §1

CS1 (Chondrosarcoma) = system: CS1 (Chondrosarcoma)
Procedure, shortened: as §1

Saos-2 (Osteosarcoma) = system: Saos-2 (Osteosarcoma)
Procedure, shortened: as §1

[2] = system: SNU-61 (Colorectal Carcinoma)
Procedure, shortened: as §1

HuO9 (Osteosarcoma) = system: HuO9 (Osteosarcoma)
Procedure, shortened: as §1

[3] = system: YT (Other Blood Carcinomas)
Procedure, shortened: as §1

A172 (Glioblastoma) = system: A172 (Glioblastoma)
Procedure, shortened: as §1

[4] = system: EKVX (Non-Small Cell Lung Carcinoma)
Procedure, shortened: as §1

[5] = system: JHH-6 (Hepatocellular Carcinoma)
Procedure, shortened: as §1

[6] = system: SK-LMS-1 (Other Solid Carcinomas)
Procedure, shortened: as §1

[7] = system: MEG-01 (Chronic Myelogenous Leukemia)
Procedure, shortened: as §1

[8] = system: GDM-1 (Acute Myeloid Leukemia)
Procedure, shortened: as §1

[9] = system: SKN-3 (Head and Neck Carcinoma)
Procedure, shortened: as §1

[10] = system: MES-SA (Other Solid Carcinomas)
Procedure, shortened: as §1

[11] = system: SNG-M (Endometrial Carcinoma)
Procedure, shortened: as §1

[12] = system: HCC1143 (Breast Carcinoma)
Procedure, shortened: as §1

[13] = system: HCC-827 (Lung Adenocarcinoma)
Procedure, shortened: as §1

[14] = system: SW48 (Colorectal Carcinoma)
Procedure, shortened: as §1

[15] = system: KG-1 (Acute Myeloid Leukemia)
Procedure, shortened: as §1

Compound	combination Emax (MCF7 (Breast Carcinoma))	combination Emax [1]	combination Emax (CS1 (Chondrosarcoma))	combination Emax (Saos-2 (Osteosarcoma))	combination Emax [2]	combination Emax (HuO9 (Osteosarcoma))	combination Emax [3]	combination Emax (A172 (Glioblastoma))	combination Emax [4]	combination Emax [5]	combination Emax [6]	combination Emax [7]	combination Emax [8]	combination Emax [9]	combination Emax [10]	combination Emax [11]	combination Emax [12]	combination Emax [13]	combination Emax [14]	combination Emax [15]
CN(CCO)CC[C@H](CSc1ccccc1)Nc1ccc(S(=O)(=O)NC(=O)c2ccc(N3CCC([C@@H](O)c4ccccc4-c4ccc(Cl)cc4)CC3)cc2)cc1S(=O)(=O)C(F)(F)F [AZD4320] + C=CCn1c(=O)c2cnc(Nc3ccc(N4CCN(C)CC4)cc3)nc2n1-c1cccc(C(C)(C)O)n1 [AZD1775] (first compound max 1 µM, partner max 1 µM)	0.51	0.65	0.647	0.707	0.349	0.949	0.88	0.491	0.244	0.271	0.778	0.994	1	0.368	0.865	0.903	0.588	0.301	0.825	1
CN(CCO)CC[C@H](CSc1ccccc1)Nc1ccc(S(=O)(=O)NC(=O)c2ccc(N3CCC([C@@H](O)c4ccccc4-c4ccc(Cl)cc4)CC3)cc2)cc1S(=O)(=O)C(F)(F)F [AZD4320] + CCN(CCO)CCCOc1ccc2c(Nc3cc(CC(=O)Nc4cccc(F)c4)[nH]n3)ncnc2c1 [AZD2811] (first compound max 1 µM, 7x7, partner max 1 µM)	0.248	0.27	0.683	0.77	0.126	0.728	0.196	0.457	0.155	0.391	0.845	0.93	1	0.0584	0.513	0.775	0.304	0.176	1	0.966
CN(CCO)CC[C@H](CSc1ccccc1)Nc1ccc(S(=O)(=O)NC(=O)c2ccc(N3CCC([C@@H](O)c4ccccc4-c4ccc(Cl)cc4)CC3)cc2)cc1S(=O)(=O)C(F)(F)F [AZD4320] + CN(C)CCCOc1ccc(-c2ccc3ncc4c(c3c2)n(C2CCOCC2)c(=O)n4C)cn1 [AZD0156] (first compound max 1 µM, 7x7, partner max 1 µM)	0.234	0.165	0.427	0.193	0.11	0.79	0.623	0.176	0.155	0.129	0.371	0.898	1	0.102	0.128	0.328	0.252	0.22	0.517	0.952
CN(CCO)CC[C@H](CSc1ccccc1)Nc1ccc(S(=O)(=O)NC(=O)c2ccc(N3CCC([C@@H](O)c4ccccc4-c4ccc(Cl)cc4)CC3)cc2)cc1S(=O)(=O)C(F)(F)F [AZD4320] + C[C@@H]1COCCN1C2=NC(=NC(=C2)C3(CC3)[S@](=N)(=O)C)C4=C5C=CNC5=NC=C4 [AZD6738] (first compound max 1 µM, 7x7, partner max 10 µM)	0.656	0.803	0.83	0.673	0.365	0.956	0.811	0.731	0.252	0.443	0.866	0.983	1	0.546	0.691	0.973	0.842	0.551	0.954	1
CN(CCO)CC[C@H](CSc1ccccc1)Nc1ccc(S(=O)(=O)NC(=O)c2ccc(N3CCC([C@@H](O)c4ccccc4-c4ccc(Cl)cc4)CC3)cc2)cc1S(=O)(=O)C(F)(F)F [AZD4320] + C[C@@H](Nc1cc(F)cc(F)c1)c1cc(C(=O)N(C)C)cc2c(=O)cc(N3CCOCC3)oc12 [AZD8186] (first compound max 1 µM, 7x7, partner max 3 µM)	0.544	0.645	0.839	0.478	0.162	0.953	0.676	0.327	0.308	0.326	0.94	0.773	1	0.277	0.297	0.674	0.418	0.393	0.914	0.953
CN(CCO)CC[C@H](CSc1ccccc1)Nc1ccc(S(=O)(=O)NC(=O)c2ccc(N3CCC([C@@H](O)c4ccccc4-c4ccc(Cl)cc4)CC3)cc2)cc1S(=O)(=O)C(F)(F)F [AZD4320] + Cc1cc2ncnn2cc1Nc1ncc2c(n1)n(C1CCOCC1)c(=O)n2C [AZD7648] (first compound max 1 µM, 7x7, partner max 10 µM)	0.367	0.344	0.347	0.21	0.107	0.77	0.675	0.262	0.237	0.174	0.447	0.925	0.982	0.0826	0.226	0.264	0.282	0.182	0.632	0.966
